For 19 compounds, EC50, IC50 and Activity results are on record in ChEMBL document CHEMBL1153709, “NSAID-derived gamma-secretase modulators. Part III: Membrane anchoring” (Bioorg Med Chem Lett, 2009).

Assay type in all cases: cell-based
In data set [1] the target is Gamma-secretase. Nature of the data set: Modulation of gamma-secretase in human H4 cells assessed as increase in amyloid beta38 production by LPECL assay.
The target in data set [2] is Gamma-secretase. Nature of the data set: Modulation of gamma-secretase in human H4 cells assessed as inhibition of in amyloid beta40 production by LPECL assay.
The target in data set [3] is Gamma-secretase. Nature of the data set: Modulation of gamma-secretase in human H4 cells assessed as inhibition of in amyloid beta42 production by LPECL assay.
Another data set relates to H4. Nature of the data set: Cytotoxicity against human H4 cells by MTS assay. In general terms: Tetrazolium dyes change colour on reduction, which living cells bring about.
For data set [4], the target named is Gamma-secretase (Homo sapiens) (UniProt Q96BI3+Q9NZ42+Q8WW43+P49768+Q92542+P49810). Nature of the data set: Modulation of gamma-secretase in human H4 cells assessed as reduction of in amyloid beta42 production at 40 uM by LPECL assay. Further details: scale not given: the % may be the effect or the level left.

By EC50 is commonly meant the concentration that produces a half-maximal response. As usually defined, the IC50 is the concentration that gives 50% inhibition. For `CCCCCCCC/C=C/CCCCCCCC(=O)n1c2ccccc2c2ccc(OCC(=O)O)cc21`, the EC50 on Gamma-secretase [1] turned out to be 9.3 µM. Also, the IC50 on Gamma-secretase [2] was more than 40 µM; at Gamma-secretase [3] it was 13 µM.
In the data set with H4, `CCCCCCCCCCCCO/N=C(/c1ccc(Cl)cc1)c1ccc(OC(C)(C)C(=O)O)cc1` gave an Activity of 80 µM. Also, the 50% effective concentration (EC50) on Gamma-secretase [1] is more than 40 µM. The IC50 on Gamma-secretase [2] and on Gamma-secretase [3] was more than 40 µM each time.
For `CN(C)c1ccc(/N=N/c2ccc(S(=O)(=O)n3c4ccccc4c4ccc(OCC(=O)O)cc43)cc2)cc1`, on Gamma-secretase [1], the EC50 amounted to 7.6 µM. The results for the IC50 on Gamma-secretase [2] and on Gamma-secretase [3] were more than 80 µM and 9 µM, respectively.
The corresponding values for `CCCCCCCCCCCCCCCCO/N=C(/c1ccc(Cl)cc1)c1ccc(OC(C)(C)C(=O)O)cc1` are more than 80 µM, more than 80 µM and more than 80 µM.
As to `CCCCCCCCCO/N=C(/c1ccc(Cl)cc1)c1ccc(OC(C)(C)C(=O)O)cc1`, the EC50 at Gamma-secretase [1] was more than 40 µM. Further, the IC50 at Gamma-secretase [2] and at Gamma-secretase [3] was more than 40 µM throughout.
For the compound `CC(C)(Oc1ccc(/C(=N\OCCCCCCCCCCO/N=C(/c2ccc(Cl)cc2)c2ccc(OC(C)(C)C(=O)O)cc2)c2ccc(Cl)cc2)cc1)C(=O)O`, the Activity in the data set on H4 came to 80 µM. Besides, the EC50 on Gamma-secretase [1] was more than 40 µM. The IC50 at Gamma-secretase [2] was more than 40 µM; on Gamma-secretase [3], more than 32.6 µM.
As to `O=C(O)COc1ccc2c3ccccc3n(Cc3cccc(C4(C(F)(F)F)N=N4)c3)c2c1`, the EC50 at Gamma-secretase [1] is more than 80 µM. In addition, the IC50 at Gamma-secretase [2] and at Gamma-secretase [3] was more than 80 µM throughout.
With `CN(C)c1cccc2c(S(=O)(=O)n3c4ccccc4c4ccc(OCC(=O)O)cc43)cccc12`, the Activity with H4 came out at 80 µM. In addition, the concentration for a half-maximal effect (EC50) on Gamma-secretase [1] is more than 40 µM. For the same compound, the half-maximal inhibitory concentration (IC50) on Gamma-secretase [2] and at Gamma-secretase [3] was more than 40 µM throughout.
For the compound `CCCCCCCC/C=C\CCCCCCCC(=O)n1c2ccccc2c2ccc(OCC(=O)O)cc21`, on Gamma-secretase [1], the EC50 worked out at 9.2 µM. For the same compound, the results for the IC50 on Gamma-secretase [2] and on Gamma-secretase [3] were more than 40 µM and 13.1 µM, respectively.
Take `CCCCCCCCCCO/N=C(/c1ccc(Cl)cc1)c1ccc(OC(C)(C)C(=O)O)cc1`: the 50% effective concentration (EC50) at Gamma-secretase [1] is more than 80 µM. In addition, the IC50 is more than 80 µM at Gamma-secretase [2] and 36.1 µM on Gamma-secretase [3]. Besides, the Activity in data set [4] was 60%.
Compound `CC(C)(Oc1ccc(/C(=N\OCCCCCCCCCO/N=C(/c2ccc(Cl)cc2)c2ccc(OC(C)(C)C(=O)O)cc2)c2ccc(Cl)cc2)cc1)C(=O)O` showed an Activity in the data set on H4 of 80 µM. Further, at Gamma-secretase [1], the EC50 is more than 40 µM. The half-inhibitory concentration (IC50) at Gamma-secretase [2] and on Gamma-secretase [3] was more than 40 µM each time.
In the case of `CC(C)(Oc1ccc(/C(=N\OCCCCCCCCO/N=C(/c2ccc(Cl)cc2)c2ccc(OC(C)(C)C(=O)O)cc2)c2ccc(Cl)cc2)cc1)C(=O)O`, the EC50 on Gamma-secretase [1] worked out at 47.6 µM. Also, the values for the 50% inhibitory concentration (IC50) at Gamma-secretase [2] and at Gamma-secretase [3] were 37.3 µM and 23.7 µM, respectively.
The corresponding values for `N#Cc1ccccc1-c1ccc(Cn2c3ccccc3c3ccc(OCC(=O)O)cc32)cc1` are more than 80 µM, more than 80 µM and more than 80 µM.
Take `CCCCCCCCCCCO/N=C(/c1ccc(Cl)cc1)c1ccc(OC(C)(C)C(=O)O)cc1`: the EC50 at Gamma-secretase [1] is more than 40 µM. The IC50 on Gamma-secretase [2] and at Gamma-secretase [3] was more than 40 µM in each case.
With `CCCCCCCCCCCCCCCCCCn1c2ccccc2c2ccc(OCC(=O)O)cc21`, the concentration giving a half-maximal response (EC50) at Gamma-secretase [1] was found to be 1.4 µM. The figures for the IC50 on Gamma-secretase [2] and on Gamma-secretase [3] were more than 80 µM and 26 µM, respectively.
For `CCCCCCCCO/N=C(/c1ccc(Cl)cc1)c1ccc(OC(C)(C)C(=O)O)cc1`, the Activity in the data set on H4 came to 80 µM; in data set [4] it was 60%. Further, on Gamma-secretase [1], the EC50 is 16.1 µM. The 50% inhibitory concentration (IC50) on Gamma-secretase [2] worked out at 47.6 µM; at Gamma-secretase [3], 36.2 µM.
Consider `CCCCCCCCCCCCCCO/N=C(/c1ccc(Cl)cc1)c1ccc(OC(C)(C)C(=O)O)cc1`, for which, on Gamma-secretase [1], the concentration giving a half-maximal response (EC50) was more than 80 µM. In addition, the IC50 at Gamma-secretase [2] and at Gamma-secretase [3] was more than 80 µM in each case.
In the data set on H4, `CC(C)(Oc1ccc(C(/N=N/c2ccc([N+](=O)[O-])cc2[N+](=O)[O-])c2ccc(Cl)cc2)cc1)C(=O)O` (stereo not given) returned an Activity of 80 µM. In addition, at Gamma-secretase [1], the EC50 was 47.6 µM. Besides, the results for the IC50 on Gamma-secretase [2] and at Gamma-secretase [3] were 37.3 µM and 17 µM, respectively.
On to `CCCCCCCCCC(=O)n1c2ccccc2c2ccc(OCC(=O)O)cc21`, for which the EC50 at Gamma-secretase [1] is 12.6 µM. The IC50 was more than 40 µM at Gamma-secretase [2] and 22.4 µM at Gamma-secretase [3].
